Holding throughout (experiment): biochemical
What all share (design): Eurofins KinaseProfiler full panel at Km ATP, residual kinase activity (%) relative to DMSO

Test [1] concerns the target T1, PRK1(h) (Homo sapiens, UniProt Q16512).
T1 construct: gene PKN1
In outline:
(§1)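 Radiometric kinase activity assays were run with ATP at Km and compounds at 10 µM, and remaining activity (%) was reported. A separate competitive binding screen measured DNA-tagged kinase displaced from immobilized active-site ligands by qPCR, giving percent kinase still bound at 10 µM compound in DMSO.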

Test [2] deals with DYRK1B(h) (Homo sapiens, UniProt Q9Y463). In outline: as §1
Sequence of DYRK1B(h) (Q9Y463 whole entry): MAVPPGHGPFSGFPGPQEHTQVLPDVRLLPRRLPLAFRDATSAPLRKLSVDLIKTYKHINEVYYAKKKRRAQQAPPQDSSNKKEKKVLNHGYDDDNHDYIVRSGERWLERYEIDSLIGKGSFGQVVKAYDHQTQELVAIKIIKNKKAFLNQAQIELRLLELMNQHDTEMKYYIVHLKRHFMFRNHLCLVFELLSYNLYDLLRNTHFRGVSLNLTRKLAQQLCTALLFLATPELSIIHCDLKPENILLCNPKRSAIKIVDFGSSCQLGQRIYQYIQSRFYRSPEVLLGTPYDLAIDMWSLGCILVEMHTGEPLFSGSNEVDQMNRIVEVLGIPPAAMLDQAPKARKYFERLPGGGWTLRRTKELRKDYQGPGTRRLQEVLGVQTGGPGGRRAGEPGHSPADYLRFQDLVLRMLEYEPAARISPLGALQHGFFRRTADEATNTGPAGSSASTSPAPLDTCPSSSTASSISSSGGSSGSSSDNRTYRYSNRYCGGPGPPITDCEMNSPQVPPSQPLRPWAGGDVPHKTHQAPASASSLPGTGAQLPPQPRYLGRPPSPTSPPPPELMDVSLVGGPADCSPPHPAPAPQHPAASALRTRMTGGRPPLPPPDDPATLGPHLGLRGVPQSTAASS
Test [3] concerns the target DYRK1A(h) (Homo sapiens, UniProt Q13627). The procedure, abridged:
as §1

The target of test [4] is T2, cKit(V560G)(h) (Homo sapiens, UniProt P10721, V560G).
T2 construct: gene KIT
T2 sequence (P10721 whole entry V560G): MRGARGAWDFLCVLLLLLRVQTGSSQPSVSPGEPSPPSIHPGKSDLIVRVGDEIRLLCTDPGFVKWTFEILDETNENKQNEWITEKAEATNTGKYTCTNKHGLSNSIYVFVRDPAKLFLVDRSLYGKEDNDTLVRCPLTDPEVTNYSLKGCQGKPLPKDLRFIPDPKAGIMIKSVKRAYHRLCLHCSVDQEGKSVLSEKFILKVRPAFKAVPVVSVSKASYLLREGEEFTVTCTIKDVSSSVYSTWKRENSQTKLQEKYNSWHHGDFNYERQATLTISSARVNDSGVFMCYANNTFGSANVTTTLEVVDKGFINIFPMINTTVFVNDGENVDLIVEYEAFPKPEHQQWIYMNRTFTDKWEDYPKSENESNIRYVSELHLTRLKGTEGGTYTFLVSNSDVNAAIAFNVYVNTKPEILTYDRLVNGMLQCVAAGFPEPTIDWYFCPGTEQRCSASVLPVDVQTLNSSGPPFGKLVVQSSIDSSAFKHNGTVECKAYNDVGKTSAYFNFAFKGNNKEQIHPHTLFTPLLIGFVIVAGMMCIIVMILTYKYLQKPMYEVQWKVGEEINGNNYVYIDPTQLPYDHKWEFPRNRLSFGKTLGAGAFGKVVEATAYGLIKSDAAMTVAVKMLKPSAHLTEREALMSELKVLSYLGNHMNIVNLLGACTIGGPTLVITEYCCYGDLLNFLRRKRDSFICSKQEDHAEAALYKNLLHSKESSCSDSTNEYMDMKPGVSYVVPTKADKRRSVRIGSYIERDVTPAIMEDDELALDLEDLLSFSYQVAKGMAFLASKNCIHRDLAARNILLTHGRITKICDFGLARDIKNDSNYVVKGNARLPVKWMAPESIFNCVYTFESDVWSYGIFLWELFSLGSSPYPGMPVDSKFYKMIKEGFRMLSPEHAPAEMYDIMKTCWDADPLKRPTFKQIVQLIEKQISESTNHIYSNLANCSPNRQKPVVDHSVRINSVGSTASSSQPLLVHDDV
In outline: as §1

Test [5] has as its target T3, CaMKIIα(h) (Homo sapiens, UniProt Q9UQM7).
T3 construct: gene CAMK2A
In outline:
as §1

Test [6] addresses T4, Arg(h) (Homo sapiens, UniProt P42684).
T4 construct: gene ABL2
In outline: as §1

Test [7] concerns the target T5, NEK1(h) (Homo sapiens, UniProt Q96PY6).
T5 sequence (Q96PY6 1-1258): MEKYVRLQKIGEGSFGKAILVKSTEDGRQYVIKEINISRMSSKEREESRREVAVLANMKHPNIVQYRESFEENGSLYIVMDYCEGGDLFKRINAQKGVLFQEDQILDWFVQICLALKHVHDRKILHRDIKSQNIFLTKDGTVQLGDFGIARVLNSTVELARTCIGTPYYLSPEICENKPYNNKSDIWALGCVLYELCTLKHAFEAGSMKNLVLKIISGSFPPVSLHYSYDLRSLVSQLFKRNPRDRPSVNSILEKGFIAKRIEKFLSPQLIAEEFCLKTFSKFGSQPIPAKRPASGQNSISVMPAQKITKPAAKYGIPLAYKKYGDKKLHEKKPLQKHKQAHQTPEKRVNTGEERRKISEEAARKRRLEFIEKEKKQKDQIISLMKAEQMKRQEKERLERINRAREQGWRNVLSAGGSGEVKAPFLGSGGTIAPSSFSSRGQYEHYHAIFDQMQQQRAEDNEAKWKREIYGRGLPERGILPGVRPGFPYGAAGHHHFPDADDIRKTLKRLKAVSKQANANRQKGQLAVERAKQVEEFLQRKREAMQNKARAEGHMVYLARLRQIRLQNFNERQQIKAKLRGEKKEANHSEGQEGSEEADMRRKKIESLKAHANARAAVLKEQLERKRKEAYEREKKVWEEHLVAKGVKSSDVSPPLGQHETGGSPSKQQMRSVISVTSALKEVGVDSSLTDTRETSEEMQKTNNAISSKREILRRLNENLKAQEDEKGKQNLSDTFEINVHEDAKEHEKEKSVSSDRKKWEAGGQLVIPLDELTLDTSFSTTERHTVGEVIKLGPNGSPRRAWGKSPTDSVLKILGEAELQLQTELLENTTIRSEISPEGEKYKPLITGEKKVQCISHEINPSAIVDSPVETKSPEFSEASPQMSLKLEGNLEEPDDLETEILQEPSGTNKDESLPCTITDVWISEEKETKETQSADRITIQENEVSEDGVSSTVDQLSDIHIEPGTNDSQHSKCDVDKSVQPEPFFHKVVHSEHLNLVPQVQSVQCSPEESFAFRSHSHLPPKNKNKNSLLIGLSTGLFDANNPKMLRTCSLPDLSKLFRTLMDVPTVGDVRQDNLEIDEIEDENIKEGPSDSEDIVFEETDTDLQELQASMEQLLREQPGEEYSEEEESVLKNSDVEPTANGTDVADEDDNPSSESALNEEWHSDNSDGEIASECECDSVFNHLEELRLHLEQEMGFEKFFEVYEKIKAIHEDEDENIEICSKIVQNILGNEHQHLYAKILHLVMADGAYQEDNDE
The procedure, abridged: as §1

For test [8], the target named is T6, MKK4(m) (Mus musculus, UniProt P47809).
T6 construct: gene Map2k4
T6 sequence (P47809 1-397): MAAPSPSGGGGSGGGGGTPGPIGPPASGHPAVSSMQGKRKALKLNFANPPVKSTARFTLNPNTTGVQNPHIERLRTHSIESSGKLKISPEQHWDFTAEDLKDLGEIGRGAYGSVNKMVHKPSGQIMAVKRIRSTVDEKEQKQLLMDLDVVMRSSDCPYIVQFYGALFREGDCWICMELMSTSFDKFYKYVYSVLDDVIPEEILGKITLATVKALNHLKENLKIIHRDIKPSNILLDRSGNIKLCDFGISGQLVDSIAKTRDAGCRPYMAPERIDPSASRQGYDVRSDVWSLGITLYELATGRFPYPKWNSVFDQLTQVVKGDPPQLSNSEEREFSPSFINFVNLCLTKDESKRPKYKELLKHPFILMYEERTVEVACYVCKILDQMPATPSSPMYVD
In outline: as §1

The target of test [9] is T7, Pyk2(h) (Homo sapiens, UniProt Q14289).
T7 construct: gene PTK2B
T7 sequence (Q14289 whole entry): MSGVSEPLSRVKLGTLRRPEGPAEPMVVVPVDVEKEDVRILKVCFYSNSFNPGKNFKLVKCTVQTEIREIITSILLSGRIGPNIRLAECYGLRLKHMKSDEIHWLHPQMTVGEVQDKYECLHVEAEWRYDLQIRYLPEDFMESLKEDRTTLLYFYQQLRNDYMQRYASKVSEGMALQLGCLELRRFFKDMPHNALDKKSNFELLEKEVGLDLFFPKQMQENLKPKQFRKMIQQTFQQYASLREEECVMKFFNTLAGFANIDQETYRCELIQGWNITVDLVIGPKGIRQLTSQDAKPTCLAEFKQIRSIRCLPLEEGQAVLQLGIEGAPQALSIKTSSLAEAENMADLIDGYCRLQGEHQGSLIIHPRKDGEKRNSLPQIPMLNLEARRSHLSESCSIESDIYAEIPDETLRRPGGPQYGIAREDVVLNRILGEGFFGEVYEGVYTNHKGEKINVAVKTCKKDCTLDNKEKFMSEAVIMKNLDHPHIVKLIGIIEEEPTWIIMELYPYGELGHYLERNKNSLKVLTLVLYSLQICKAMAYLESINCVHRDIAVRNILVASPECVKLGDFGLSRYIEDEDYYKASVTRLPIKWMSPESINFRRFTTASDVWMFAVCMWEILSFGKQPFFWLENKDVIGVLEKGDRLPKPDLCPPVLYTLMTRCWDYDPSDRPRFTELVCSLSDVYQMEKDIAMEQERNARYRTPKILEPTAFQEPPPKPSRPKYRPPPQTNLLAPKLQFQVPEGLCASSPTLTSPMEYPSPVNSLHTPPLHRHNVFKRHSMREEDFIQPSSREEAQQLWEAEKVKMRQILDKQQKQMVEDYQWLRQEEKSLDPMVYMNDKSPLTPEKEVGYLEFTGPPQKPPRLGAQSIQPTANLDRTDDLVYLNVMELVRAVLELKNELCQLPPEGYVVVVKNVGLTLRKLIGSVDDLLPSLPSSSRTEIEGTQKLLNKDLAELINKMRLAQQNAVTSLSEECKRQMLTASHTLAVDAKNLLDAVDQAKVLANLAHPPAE
The procedure, abridged: as §1

Where [10] appears, read: read-out: Residual activity (%) Spautin-1 5aa.
Setting [11] is: read-out: Residual activity (%) 5as.
Where [12] appears, read: read-out: Residual activity (%) 5at.
Where [13] appears, read: read-out: Residual activity (%) 5ay.

This note sets out measurements from publication PMC7827406, “Structure–Activity Relationship (SAR) Study of Spautin-1 to Entail the Discovery of Novel NEK4 Inhibitors” (International Journal of Molecular Sciences, 2021).

Like-named read-outs stand apart in the source and are kept apart here.

T1 sequence (Q16512 whole entry): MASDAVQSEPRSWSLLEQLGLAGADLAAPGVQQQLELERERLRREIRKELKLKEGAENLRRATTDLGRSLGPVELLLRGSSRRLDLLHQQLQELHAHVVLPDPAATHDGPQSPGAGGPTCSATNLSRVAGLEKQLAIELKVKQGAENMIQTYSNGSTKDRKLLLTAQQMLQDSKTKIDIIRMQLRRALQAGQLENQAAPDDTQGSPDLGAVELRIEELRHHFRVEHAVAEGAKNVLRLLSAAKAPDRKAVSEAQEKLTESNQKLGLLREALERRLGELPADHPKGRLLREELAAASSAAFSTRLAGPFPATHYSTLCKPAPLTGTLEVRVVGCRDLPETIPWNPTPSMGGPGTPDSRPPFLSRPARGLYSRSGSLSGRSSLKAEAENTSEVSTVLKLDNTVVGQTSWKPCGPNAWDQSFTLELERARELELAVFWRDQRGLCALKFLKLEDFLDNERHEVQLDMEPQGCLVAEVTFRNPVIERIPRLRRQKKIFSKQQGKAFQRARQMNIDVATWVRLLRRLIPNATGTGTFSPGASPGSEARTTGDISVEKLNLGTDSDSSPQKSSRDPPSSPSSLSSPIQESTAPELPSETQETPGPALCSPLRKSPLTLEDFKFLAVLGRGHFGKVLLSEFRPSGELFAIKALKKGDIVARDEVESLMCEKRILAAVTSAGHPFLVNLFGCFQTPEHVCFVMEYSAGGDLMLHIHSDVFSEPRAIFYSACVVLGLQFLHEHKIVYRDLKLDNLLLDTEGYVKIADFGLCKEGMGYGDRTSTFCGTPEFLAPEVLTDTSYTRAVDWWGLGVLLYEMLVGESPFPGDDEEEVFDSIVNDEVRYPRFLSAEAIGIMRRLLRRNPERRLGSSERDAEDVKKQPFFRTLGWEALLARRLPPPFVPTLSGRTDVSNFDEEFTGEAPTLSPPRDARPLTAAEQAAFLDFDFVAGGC
T3 sequence (Q9UQM7 whole entry): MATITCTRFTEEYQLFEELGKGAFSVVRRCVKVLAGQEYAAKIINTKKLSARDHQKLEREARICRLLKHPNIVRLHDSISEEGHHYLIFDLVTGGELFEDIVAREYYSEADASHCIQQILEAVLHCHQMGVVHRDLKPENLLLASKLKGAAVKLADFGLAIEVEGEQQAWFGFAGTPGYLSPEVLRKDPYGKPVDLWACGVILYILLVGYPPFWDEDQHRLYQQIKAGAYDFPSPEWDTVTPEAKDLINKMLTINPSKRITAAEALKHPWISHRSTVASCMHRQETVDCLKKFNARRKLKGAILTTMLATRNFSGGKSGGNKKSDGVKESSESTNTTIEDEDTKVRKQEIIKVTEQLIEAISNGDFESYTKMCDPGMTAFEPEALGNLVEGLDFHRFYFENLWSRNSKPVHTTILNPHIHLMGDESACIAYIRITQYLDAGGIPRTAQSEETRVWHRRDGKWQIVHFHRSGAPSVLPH

On to `Fc1ccc(CNc2ncnc3ccc(F)cc23)cc1` [5aa, 6-Fluoro-N-(4-fluorobenzyl)-4-Quinazolinamine], for which the remaining activity at 10 µM turned out to be 89% in test [1] (setting [10]); 88% in test [2] (setting [10]); 74% in test [3] (setting [10]); 85% in test [4] (setting [10]); 94% in test [5] (setting [10]); 79% in test [6] (setting [10]). Also, the remaining activity at 10 µM in test [7] (setting [10]) is 81%; in test [8] (setting [10]), 105%; in [9] (setting [10]) it was 86%.
Take `Fc1ccc(CCNc2ncnc3ccc(F)cc23)cc1` [5as, 6-Fluoro-N-[2-(4-Fluorophenyl)Ethyl]-4-Quinazolinamine]: the remaining activity at 10 µM was found to be 72% in test [1] (setting [11]); 82% in test [2] (setting [11]); 68% in [3] (setting [11]); 105% in test [4] (setting [11]); 88% in test [5] (setting [11]); 82% in [6] (setting [11]). Further, the remaining activity at 10 µM amounted to 97% in test [7] (setting [11]), 112% in [8] (setting [11]) and 74% in test [9] (setting [11]).
With `Fc1ccc2ncnc(NCCc3ccc(Cl)cc3)c2c1` [5at, N-[2-(4-Chlorophenyl)Ethyl]-6-Fluoro-4-Quinazolinamine], the remaining activity at 10 µM in [1] (setting [12]) was 80%; in [2] (setting [12]) it was 92%; in test [3] (setting [12]) it was 63%; in [4] (setting [12]), 90%; in test [5] (setting [12]), 89%; in [6] (setting [12]), 81%. For the same compound, the remaining activity at 10 µM in [7] (setting [12]) worked out at 70%; in [8] (setting [12]), 118%; in [9] (setting [12]), 69%.
Take `COc1ccc2ncnc(Nc3cccc(F)c3)c2c1` [5ay, N-(3-Fluorophenyl)-6-Methoxy-4-Quinazolinamine]: the remaining activity at 10 µM stood at 77% in [1] (setting [13]); 53% in [2] (setting [13]); 29% in test [3] (setting [13]); 106% in [4] (setting [13]); 58% in [5] (setting [13]); 73% in [6] (setting [13]). Moreover, the remaining activity at 10 µM in test [7] (setting [13]) worked out at 60%; in test [8] (setting [13]), 110%; in [9] (setting [13]), 72%.
